According to patent publication US8802597B2, “Herbicidal pyrimidines” (E I du Pont de Nemours and Company, priority 2003, dated 2014):
Where two headings read alike, the source gives them in different places.

Experiments:
Type in all cases: in vivo
[1] = tested on: Surinam grass (Brachiaria decumbens); test: Test B pre/postemergence; conditions: Urochloa decumbens; for pest or weed control at 62 g/ha: 62 g ai/ha; for pest or weed control at 250 g/ha: 250 g ai/ha
Procedure, shortened: (§1)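 Visual injury scored 0 (no effect) to 100 (complete control) versus untreated controls after 13 to 15 days in greenhouse. Treatments were pre- or postemergence sprays of surfactant-containing solvent formulations; postemergence plants at 1- to 4-leaf stage, 2 to 18 cm.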

[2] = tested on: barnyardgrass (Echinochloa crus-galli); test: Test B pre/postemergence; conditions: Echinochloa crus-galli; for pest or weed control at 62 g/ha: 62 g ai/ha; for pest or weed control at 250 g/ha: 250 g ai/ha
Procedure, shortened: as §1

[3] = tested on: cocklebur (Xanthium strumarium); test: Test B pre/postemergence; conditions: Xanthium strumarium; for pest or weed control at 62 g/ha: 62 g ai/ha; for pest or weed control at 250 g/ha: 250 g ai/ha
Procedure, shortened: as §1

[4] = tested on: corn (Zea mays); test: Test B pre/postemergence; conditions: Zea mays; for Corn plant response rating (crop injury, 0 = no effect, 100 = complete kill) at 250 g/ha: 250 g ai/ha
Procedure, shortened: as §1

[5] = tested on: crabgrass (Digitaria sanguinalis); test: Test B pre/postemergence; conditions: Digitaria sanguinalis; for pest or weed control at 62 g/ha: 62 g ai/ha; for pest or weed control at 250 g/ha: 250 g ai/ha
Procedure, shortened: as §1

[6] = tested on: giant foxtail (Setaria faberii); test: Test B pre/postemergence; conditions: Setaria faberi; for pest or weed control at 62 g/ha: 62 g ai/ha; for pest or weed control at 250 g/ha: 250 g ai/ha
Procedure, shortened: as §1

[7] = tested on: lambsquarters (Chenopodium album); test: Test B pre/postemergence; conditions: Chenopodium album; for pest or weed control at 62 g/ha: 62 g ai/ha; for pest or weed control at 250 g/ha: 250 g ai/ha
Procedure, shortened: as §1

[8] = tested on: morningglory (Ipomoea coccinea); test: Test B pre/postemergence; conditions: Ipomoea; for pest or weed control at 62 g/ha: 62 g ai/ha; for pest or weed control at 250 g/ha: 250 g ai/ha
Procedure, shortened: as §1

[9] = tested on: pigweed (Amaranthus retroflexus); test: Test B pre/postemergence; conditions: Amaranthus retroflexus; for pest or weed control at 62 g/ha: 62 g ai/ha; for pest or weed control at 250 g/ha: 250 g ai/ha
Procedure, shortened: as §1

[10] = tested on: velvetleaf (Abutilon theophrasti); test: Test B pre/postemergence; conditions: Abutilon theophrasti; for pest or weed control at 62 g/ha: 62 g ai/ha; for pest or weed control at 250 g/ha: 250 g ai/ha
Procedure, shortened: as §1

[11] = tested on: wheat (Triticum aestivum); test: Test B pre/postemergence; conditions: Triticum aestivum; for plant injury at 62 g/ha: 62 g ai/ha; for plant injury at 250 g/ha: 250 g ai/ha
Procedure, shortened: as §1

[12] = tested on: blackgrass (Alopecurus myosuroides); test: Test B postemergence; conditions: Alopecurus myosuroides, post-emergence
Procedure, shortened: as §1

[13] = tested on: wild oat (Avena fatua); test: Test B postemergence; conditions: Avena fatua, post-emergence
Procedure, shortened: as §1

[14] = tested on: barnyardgrass (Echinochloa crus-galli); test: Test B flooded paddy test; conditions: Echinochloa crus-galli, Flood, 1000 g ai/ha; scale 0 (no effect) to 100 (complete control); read-out: Plant response rating, Barnyardgrass
Procedure, shortened: (§2)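 Rice, umbrella sedge, duck salad and barnyardgrass grown to 2-leaf stage under flooded paddy conditions and treated with formulated test chemicals. Kept in greenhouse 13–15 days, then visually rated against untreated controls on a 0–100 scale (0 no effect, 100 complete control).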

[15] = tested on: duck salad (Heteranthera limosa); test: Test B flooded paddy test; conditions: Heteranthera limosa, Flood, 1000 g ai/ha; scale 0 to 100; read-out: Plant response rating, Ducksalad
Procedure, shortened: as §2

[16] = tested on: rice (Oryza sativa); test: Test B flooded paddy test; conditions: Oryza sativa, Flood, 1000 g ai/ha; scale 0 to 100; read-out: Plant response rating, Rice
Procedure, shortened: as §2

[17] = tested on: umbrella sedge (Cyperus difformis); test: Test B flooded paddy test; conditions: Cyperus difformis, Flood, 1000 g ai/ha; scale 0 to 100; read-out: Plant response rating, Sedge, Umbrella
Procedure, shortened: as §2

[18] = pre-emergence, Preemergence, scale 0 to 100 (0 no effect, 100 complete control), read-out: Plant response rating, Barnyardgrass
[19] = pre-emergence, Preemergence, scale 0 to 100 (0 no effect, 100 complete control), read-out: Plant response rating, Wheat

CCOC(=O)c1nc(C2CC2)nc(N)c1Br [Compound 1, ethyl 6-amino-5-bromo-2-cyclopropyl-4-pyrimidinecarboxylate] showed a pest or weed control at 62 g/ha ([1]; post-emergence, Postemergence, scale 0 to 100 (0 no effect, 100 complete control), read-out: Surinam Grass plant response rating) of 60%, a pest or weed control at 250 g/ha ([1]; post-emergence, Postemergence, scale 0 to 100, read-out: Plant response rating, Surinam Grass) of 90% and a pest or weed control at 250 g/ha ([1]; pre-emergence, Preemergence, scale 0 to 100 (0 no effect, 100 complete control), read-out: Plant response rating, Surinam Grass) of 80%. For the same compound, the pest or weed control at 62 g/ha ([1]; pre-emergence, Preemergence, scale 0 to 100, 0 no effect, 100 complete control, read-out: Plant response rating, Surinam Grass) was 50%, the pest or weed control at 62 g/ha ([2]; post-emergence, Postemergence, scale 0 to 100 (0 no effect, 100 complete control), read-out: Barnyardgrass plant response rating) was 50% and the pest or weed control at 250 g/ha ([2]; post-emergence, Postemergence, scale 0 to 100, read-out: Plant response rating, Barnyardgrass) was 90%. For the same compound, the pest or weed control at 62 g/ha [2, 18] was 60%, the pest or weed control at 250 g/ha [2, 18] was 90% and the pest or weed control at 62 g/ha ([3]; post-emergence, Postemergence, scale 0 to 100 (0 no effect, 100 complete control), read-out: Cocklebur plant response rating) was 90%. The pest or weed control at 250 g/ha ([3]; post-emergence, Postemergence, scale 0 to 100, read-out: Plant response rating, Cocklebur) was 90%, the pest or weed control at 62 g/ha ([3]; pre-emergence, Preemergence, scale 0 to 100, 0 no effect, 100 complete control, read-out: Plant response rating, Cocklebur) was 90% and the pest or weed control at 250 g/ha ([3]; pre-emergence, Preemergence, scale 0 to 100 (0 no effect, 100 complete control), read-out: Plant response rating, Cocklebur) was 100%. For the same compound, the plant injury at 62 g/ha ([4]; post-emergence, Postemergence, 62 g ai/ha, scale 0 to 100 (0 no effect, 100 complete control), read-out: Corn plant response rating) was 30%, the Corn plant response rating (crop injury, 0 = no effect, 100 = complete kill) at 250 g/ha ([4]; post-emergence, Postemergence, scale 0 to 100) was 70% and the Corn plant response rating (crop injury, 0 = no effect, 100 = complete kill) at 62 g/ha ([4]; pre-emergence, Preemergence, 62 g ai/ha, scale 0 to 100, 0 no effect, 100 complete control) was 20%. The Corn plant response rating (crop injury, 0 = no effect, 100 = complete kill) at 250 g/ha ([4]; pre-emergence, Preemergence, scale 0 to 100 (0 no effect, 100 complete control)) was 80%, the pest or weed control at 62 g/ha ([5]; post-emergence, Postemergence, scale 0 to 100 (0 no effect, 100 complete control), read-out: Crabgrass plant response rating) was 70% and the pest or weed control at 250 g/ha ([5]; post-emergence, Postemergence, scale 0 to 100, read-out: Plant response rating, Crabgrass) was 90%. For the same compound, the pest or weed control at 62 g/ha ([5]; pre-emergence, Preemergence, scale 0 to 100, 0 no effect, 100 complete control, read-out: Plant response rating, Crabgrass) was 90%, the pest or weed control at 250 g/ha ([5]; pre-emergence, Preemergence, scale 0 to 100 (0 no effect, 100 complete control), read-out: Plant response rating, Crabgrass) was 90% and the pest or weed control at 62 g/ha ([6]; post-emergence, Postemergence, scale 0 to 100 (0 no effect, 100 complete control), read-out: Foxtail, Giant plant response rating) was 50%. It also gave a pest or weed control at 250 g/ha ([6]; post-emergence, Postemergence, scale 0 to 100, read-out: Plant response rating, Foxtail, Giant) of 80%, a pest or weed control at 250 g/ha ([6]; pre-emergence, Preemergence, scale 0 to 100 (0 no effect, 100 complete control), read-out: Plant response rating, Foxtail, Giant) of 90% and a pest or weed control at 62 g/ha ([6]; pre-emergence, Preemergence, scale 0 to 100, 0 no effect, 100 complete control, read-out: Plant response rating, Foxtail, Giant) of 30%. The pest or weed control at 62 g/ha ([7]; post-emergence, Postemergence, scale 0 to 100 (0 no effect, 100 complete control), read-out: Lambsquarters plant response rating) was 100%, the pest or weed control at 250 g/ha ([7]; post-emergence, Postemergence, scale 0 to 100, read-out: Plant response rating, Lambsquarters) was 100% and the pest or weed control at 62 g/ha ([7]; pre-emergence, Preemergence, scale 0 to 100, 0 no effect, 100 complete control, read-out: Plant response rating, Lambsquarters) was 100%. The pest or weed control at 250 g/ha ([7]; pre-emergence, Preemergence, scale 0 to 100 (0 no effect, 100 complete control), read-out: Plant response rating, Lambsquarters) was 100%, the pest or weed control at 62 g/ha ([8]; post-emergence, Postemergence, scale 0 to 100 (0 no effect, 100 complete control), read-out: Morningglory plant response rating) was 90% and the pest or weed control at 250 g/ha ([8]; post-emergence, Postemergence, scale 0 to 100, read-out: Plant response rating, Morningglory) was 100%. The pest or weed control at 62 g/ha ([8]; pre-emergence, Preemergence, scale 0 to 100, 0 no effect, 100 complete control, read-out: Plant response rating, Morningglory) was 90%, the pest or weed control at 250 g/ha ([8]; pre-emergence, Preemergence, scale 0 to 100 (0 no effect, 100 complete control), read-out: Plant response rating, Morningglory) was 100% and the pest or weed control at 62 g/ha ([9]; post-emergence, Postemergence, scale 0 to 100 (0 no effect, 100 complete control), read-out: Pigweed plant response rating) was 90%. It also gave a pest or weed control at 250 g/ha ([9]; post-emergence, Postemergence, scale 0 to 100, read-out: Plant response rating, Pigweed) of 100%, a pest or weed control at 62 g/ha ([9]; pre-emergence, Preemergence, scale 0 to 100, 0 no effect, 100 complete control, read-out: Plant response rating, Pigweed) of 90% and a pest or weed control at 250 g/ha ([9]; pre-emergence, Preemergence, scale 0 to 100 (0 no effect, 100 complete control), read-out: Plant response rating, Pigweed) of 100%. For the same compound, the pest or weed control at 62 g/ha ([10]; post-emergence, Postemergence, scale 0 to 100 (0 no effect, 100 complete control), read-out: Velvetleaf plant response rating) was 90%, the pest or weed control at 250 g/ha ([10]; post-emergence, Postemergence, scale 0 to 100, read-out: Plant response rating, Velvetleaf) was 90% and the pest or weed control at 62 g/ha ([10]; pre-emergence, Preemergence, scale 0 to 100, 0 no effect, 100 complete control, read-out: Plant response rating, Velvetleaf) was 90%. The pest or weed control at 250 g/ha ([10]; pre-emergence, Preemergence, scale 0 to 100 (0 no effect, 100 complete control), read-out: Plant response rating, Velvetleaf) was 100%, the plant injury at 62 g/ha ([11]; post-emergence, Postemergence, scale 0 to 100 (0 no effect, 100 complete control), read-out: Wheat plant response rating) was 30% and the plant injury at 250 g/ha ([11]; post-emergence, Postemergence, scale 0 to 100, read-out: Plant response rating, Wheat) was 70%. For the same compound, the plant injury at 62 g/ha [11, 19] was 30%, the plant injury at 250 g/ha [11, 19] was 60% and the pest or weed control at 62 g/ha ([12]; 62 g ai/ha, scale 0 to 100 (0 no effect, 100 complete control), read-out: Blackgrass plant response rating) was 40%. For the same compound, the pest or weed control at 250 g/ha ([12]; 250 g ai/ha, scale 0 to 100, read-out: Plant response rating, Blackgrass) was 70%, the pest or weed control at 62 g/ha ([13]; 62 g ai/ha, scale 0 to 100 (0 no effect, 100 complete control), read-out: Oat, Wild plant response rating) was 20% and the pest or weed control at 250 g/ha ([13]; 250 g ai/ha, scale 0 to 100, read-out: Plant response rating, Oat, Wild) was 60%. The pest or weed control at 1000 g/ha [14] was 80%, the pest or weed control at 1000 g/ha [15] was 80% and the plant injury at 1000 g/ha [16] was 70%. The pest or weed control at 1000 g/ha [17] was 20%.
